Assay results taken from ChEMBL document CHEMBL1201862, “PubChem BioAssay data set” (2004).
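Method: 48-hour compound exposure of cells in 96-well plates, five concentrations, linear interpolation of endpoints. Here, GI50 denotes the concentration required for 50% inhibition of growth.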 Calls of active or inactive are those of the source. No stated cut-off is given here; in the data, active = GI50 up to about 1.1 µM and inactive = higher.

Legend:
Assay in all cases: inhibition of tumour cell growth, NCI panel, 48 h
RXF 393 = test system: RXF 393
RPMI-8226 = test system: RPMI-8226
NCI-H460 = test system: NCI-H460
HT-29 = test system: HT-29
M14 = test system: M14
K562 = test system: K562
TK-10 = test system: TK-10
HOP-62 = test system: HOP-62
SF-295 = test system: SF-295
HCC 2998 = test system: HCC 2998
PC-3 = test system: PC-3
OVCAR-8 = test system: OVCAR-8
SN12C = test system: SN12C
SF-268 = test system: SF-268
SK-MEL-2 = test system: SK-MEL-2
DU-145 = test system: DU-145
U-251 = test system: U-251
MOLT-4 = test system: MOLT-4
HL-60 = test system: HL-60
EKVX = test system: EKVX

| SMILES | GI50 (RXF 393) | GI50 (RPMI-8226) | GI50 (NCI-H460) | GI50 (HT-29) | GI50 (M14) | GI50 (K562) | GI50 (TK-10) | GI50 (HOP-62) | GI50 (SF-295) | GI50 (HCC 2998) | GI50 (PC-3) | GI50 (OVCAR-8) | GI50 (SN12C) | GI50 (SF-268) | GI50 (SK-MEL-2) | GI50 (DU-145) | GI50 (U-251) | GI50 (MOLT-4) | GI50 (HL-60) | GI50 (EKVX) |
| --- | --- | --- | --- | --- | --- | --- | --- | --- | --- | --- | --- | --- | --- | --- | --- | --- | --- | --- | --- | --- |
| CCC1(CC)C(=O)NN(C(=O)c2ccccc2)C1=O | > 100 µM (inactive) | > 100 µM (inactive) | > 100 µM (inactive) | > 100 µM (inactive) | > 100 µM (inactive) | > 100 µM (inactive) | > 100 µM (inactive) | > 100 µM (inactive) | > 100 µM (inactive) | > 100 µM (inactive) | > 100 µM (inactive) | > 100 µM (inactive) | > 100 µM (inactive) | > 100 µM (inactive) | > 100 µM (inactive) | > 100 µM (inactive) | > 100 µM (inactive) | > 100 µM (inactive) | > 100 µM (inactive) | > 100 µM (inactive) |
| C#C[C@@]1(O)CCCC2=CC3(CC[C@]21C)SCCS3 | > 100 µM (inactive) | > 100 µM (inactive) | > 100 µM (inactive) | > 100 µM (inactive) | > 100 µM (inactive) | > 100 µM (inactive) | > 100 µM (inactive) | > 100 µM (inactive) | > 100 µM (inactive) | > 100 µM (inactive) | > 100 µM (inactive) | > 100 µM (inactive) | > 100 µM (inactive) | > 100 µM (inactive) | > 100 µM (inactive) | > 100 µM (inactive) | > 100 µM (inactive) | > 100 µM (inactive) | 45.6 µM (inactive) | > 100 µM (inactive) |
| C=C(C1=CC(=O)C(C)(C)O1)[C@@H]1CC=C([C@@H]2CC[C@H]3[C@@]2(C)CC[C@H]2C(C)(C)C(=O)[C@H](O)C[C@]32C)[C@H](O)O1 | 1.81 µM (inactive) | 0.342 µM (active) | 13 µM (inactive) | 1.87 µM (inactive) | 1.58 µM (inactive) | 1.71 µM (inactive) | 1.19 µM (inactive) | 3.15 µM (inactive) | 8.04 µM (inactive) | 2.89 µM (inactive) | 1.31 µM (inactive) | 2.07 µM (inactive) | 1.98 µM (inactive) | 1.88 µM (inactive) | 2.2 µM (inactive) | 1.03 µM (active) | 1.62 µM (inactive) | 0.982 µM (active) | 2.24 µM (inactive) | 10.1 µM (inactive) |
| CCOC(=O)NC(Nc1cccc(F)c1)(C(F)(F)F)C(F)(F)F | > 100 µM (inactive) | > 100 µM (inactive) | > 100 µM (inactive) | > 100 µM (inactive) | > 100 µM (inactive) | 48.4 µM (inactive) | > 100 µM (inactive) | > 100 µM (inactive) | > 100 µM (inactive) | > 100 µM (inactive) | > 100 µM (inactive) | > 100 µM (inactive) | > 100 µM (inactive) | > 100 µM (inactive) | > 100 µM (inactive) | > 100 µM (inactive) | > 100 µM (inactive) | > 100 µM (inactive) | > 100 µM (inactive) | > 100 µM (inactive) |
| CO/C=C(/C(=O)OC)c1ccccc1COc1cccc(C(F)(F)F)c1 | 11.6 µM (inactive) | 0.408 µM (active) | 1.22 µM (inactive) | 4.14 µM (inactive) | 68.7 µM (inactive) | 3.76 µM (inactive) | 3.18 µM (inactive) | 12.6 µM (inactive) | 3.3 µM (inactive) | 10.8 µM (inactive) | 7.43 µM (inactive) | 8.69 µM (inactive) | 8.28 µM (inactive) | 8.77 µM (inactive) | 11.6 µM (inactive) | 11.6 µM (inactive) | 3.22 µM (inactive) | 1.01 µM (active) | < 0.01 µM (active) | 3.56 µM (inactive) |
| Cc1ccc2ccc(O)cc2c1 | 44.9 µM (inactive) | 27.9 µM (inactive) | 89.1 µM (inactive) | 53.6 µM (inactive) | 46.5 µM (inactive) | 20.2 µM (inactive) | > 100 µM (inactive) | > 100 µM (inactive) | 39.4 µM (inactive) | 18.2 µM (inactive) | 21.1 µM (inactive) | 23.3 µM (inactive) | 94.6 µM (inactive) | 31.8 µM (inactive) | 38.1 µM (inactive) | 91.6 µM (inactive) | 23.1 µM (inactive) | 22.6 µM (inactive) | 18.5 µM (inactive) | 43.4 µM (inactive) |
| COC(=O)c1c(O)ccc2c1c1c(n2Cc2ccccc2OC)C(=O)c2ccccc2C1=O | 13.1 µM (inactive) | 1.86 µM (inactive) | 3.78 µM (inactive) | 8.18 µM (inactive) | 8.45 µM (inactive) | 1.67 µM (inactive) | 23.2 µM (inactive) | 13.6 µM (inactive) | 18.1 µM (inactive) | 6.27 µM (inactive) | 10.4 µM (inactive) | 4.42 µM (inactive) | 10 µM (inactive) | 11.6 µM (inactive) | 13.9 µM (inactive) | 13.3 µM (inactive) | 11 µM (inactive) | 0.0393 µM (active) | 2.04 µM (inactive) | 24.5 µM (inactive) |
| N#CCCN(CCC#N)c1ccc(/C=C2\SC(=S)NC2=O)cc1Br | 86.3 µM (inactive) | > 100 µM (inactive) | > 100 µM (inactive) | > 100 µM (inactive) | > 100 µM (inactive) | > 100 µM (inactive) | > 100 µM (inactive) | 15.3 µM (inactive) | 27.9 µM (inactive) | > 100 µM (inactive) | > 100 µM (inactive) | 68.5 µM (inactive) | > 100 µM (inactive) | 20.9 µM (inactive) | > 100 µM (inactive) | > 100 µM (inactive) | 17.3 µM (inactive) | > 100 µM (inactive) | 79.8 µM (inactive) | 46.9 µM (inactive) |
| COC(=O)C1([C@@H]2C[C@@H](O)[C@]3(C)CC/C=C(\C)CCC[C@H](C)[C@H](O)[C@@H]2O3)CC1 | 52 µM (inactive) | 50.7 µM (inactive) | 32.7 µM (inactive) | 42.5 µM (inactive) | 53.3 µM (inactive) | 34.8 µM (inactive) | 57.7 µM (inactive) | 76.4 µM (inactive) | 43.1 µM (inactive) | 63.1 µM (inactive) | 31.8 µM (inactive) | 88.9 µM (inactive) | > 100 µM (inactive) | 64.7 µM (inactive) | 73.3 µM (inactive) | 66.8 µM (inactive) | 71.9 µM (inactive) | 26.5 µM (inactive) | > 100 µM (inactive) | 81.7 µM (inactive) |
| O=[N+]([O-])c1ccc(N/N=C/c2ccc(OCCCCCCCCCCCO)cc2)c([N+](=O)[O-])c1 | 2.07 µM (inactive) | 30.9 µM (inactive) | 2.5 µM (inactive) | 1.48 µM (inactive) | 1.39 µM (inactive) | 1.15 µM (inactive) | 5.19 µM (inactive) | 4.39 µM (inactive) | 3.24 µM (inactive) | 4.78 µM (inactive) | 2.45 µM (inactive) | 2.71 µM (inactive) | 3.24 µM (inactive) | 2.84 µM (inactive) | 10.3 µM (inactive) | 19.7 µM (inactive) | 2.37 µM (inactive) | 29.3 µM (inactive) | 5.56 µM (inactive) | 17 µM (inactive) |
| COc1cc2c(cc1C)NC(=O)/C2=C/c1c(Cl)[nH]c2ccccc12 | 8.07 µM (inactive) | 4.6 µM (inactive) | 3.92 µM (inactive) | 3.94 µM (inactive) | 3.21 µM (inactive) | 3.83 µM (inactive) | 10.4 µM (inactive) | 3.28 µM (inactive) | 1.77 µM (inactive) | 3.89 µM (inactive) | 5.21 µM (inactive) | 11.8 µM (inactive) | 5.3 µM (inactive) | 4.22 µM (inactive) | 2.8 µM (inactive) | 13.3 µM (inactive) | 4.69 µM (inactive) | 4.05 µM (inactive) | 2.39 µM (inactive) | 6.68 µM (inactive) |
